Data reported in US20260256960A1.
Several values for one entry are separate records, joined by “and”; a condition that tells them apart may be missing. Identical values can stand only once. Entries after “also recorded” stand apart in the source; their conditions may differ. Like-named read-outs stand apart in the source and are kept apart here.

Legend:
HEBSC from 3×Tg-AD mice = assay: Hippocampal-entorhinal brain slice culture (HEBSC) from 3×Tg-AD mice, lipid / Aβ / LysoTracker staining; type: cell-based, mouse; conditions: for effect on ethanol-induced increase in cytosolic lipid / effect on ethanol-induced increase in intraneuronal Aβ: with ethanol
Protocol: HEBSC was performed using techniques routinely used in the laboratory^2,9,11 Briefly, sections were prepared from either the P7 or adult (6 mo) 3×-Tg-AD hippocampal-entorhinal cortex formation as described by Stoppini et al^16. […] Mice were decapitated, brains extracted and the hippocampal-entorhinal complex dissected in Gey's bugger (Sigma-Aldrich). Slices were cut transversely at 375 μm using a McIlwain tissue chopper and placed on Millicell culture inserts (Millipore, PICMORG50, up to 13 slices per insert). Slices acclimated in culture media (MEM plus 24 mM HEPES and Hank's salts, 25% horse serum, 5.5 g/L glucose, 2 mM L-glutamine) in a humified 5% CO2 incubator for seven days, followed by 12% horse serum for four days, and 6% horse serum until the completion of the experiments.

CX3CR1Cre^ERT.hM4di mice = assay: Microglial Gi DREADD inhibition in CX3CR1Cre^ERT.hM4di mice given ethanol +/- CNO; type: in vivo, mouse; conditions: ten days of ethanol +/- CNO
Protocol: For in vivo studies, heterozygous CX3CR1.Cre^ERT.hM4di were treated with tamoxifen (75 mg/kg/d, i.p.) for 5 days during adulthood (12 weeks of age).

3×Tg-AD mice [1] = tested on: 3×Tg-AD mice
Protocol: (§1) Western blot was performed as reported previously^9,10. Brain tissue from the cerebral cortex was homogenized in lysis buffer (Tris-HCl, pH 7.5, Sucrose, EDTA, EGTA, 1% Triton X-100, protease, and phosphatase inhibitors). […] of protein were loaded into each lane on SDS polyacrylamide gels and were transferred to PVDF membranes. Membranes were washed in TBS and blocked for 1 hour at room temperature (Li-Cor Blocking Solution; 92760001) then were incubated overnight at 4° Celsius with primary antibodies (Table 1). Membranes were washed in TBS with 0.1% Tween-20 (Sigma-Aldrich, St. Louis, MO) then were incubated in the appropriate conjugated secondary antibody (Rockland H & L Pre-absorbed). Membranes were washed again in TBS and visualized using LiCor Image Studio Lite Ver 5.2. Western Blots were analyzed using Image Studio Lite software and each protein of interest was normalized to housekeeping protein GAPDH. […] The protein of interest was normalized to GAPDH for each sample and the percentage change relative to controls was calculated for each blot.

WT mice [2] = conditions: WT cortex, 10-mo mice, ethanol 5 weeks
Protocol: as §1

3×Tg-AD mice [3] = tested on: 3×Tg-AD mice; remark: listed apart in the source
Text: mRNA was extracted from frozen cortex or hippocampus as reported^10. Briefly, samples were homogenized with Trizol (Invitrogen) and RNA was isolated by chloroform extraction, followed by reverse transcription as described previously 11. SYBR green PCR master mix (Applied Biosystems, Foster City, CA) was used for qRT-PCR analysis. Primer sequences were designed using the National Library of Medicine Primer-BLAST tool or were obtained from PrimerBank database (Table 1) 12-14. Only primers with no predicted non-specific targets and single peak melt curves were used. Genes of interest were normalized to the expression of the reference gene 18S using the cycle threshold (Ct) value of each target gene product. The ΔΔCt method was used to compare relative differences between control and treatment groups, and the ratio by 18S or the percent change relative to 18S were used in analysis.

WT mice [4] = tested on: WT mice
3×Tg-AD mice [5] = tested on: 3×Tg-AD mice; remark: listed apart in the source
[6] = 5 g/kg/d i.g., 20% ethanol w/v, at 1 hour; cited from earlier work
[7] = 3×Tg-AD cortex, listed as ethanol
[8] = HEBSC from adult 3×Tg-AD mice, ENT region

Molecule: C[N+]1([O-])CCN(C2=Nc3cc(Cl)ccc3Nc3ccccc32)CC1 [CNO]
- effect on ethanol-induced increase in cytosolic lipid (HEBSC from 3×Tg-AD mice; HEBSC from 3×Tg-AD mice): prevented
- effect on ethanol-induced proinflammatory activation of microglia in ENT (IF) (CX3CR1Cre^ERT.hM4di mice): prevented
- effect on ethanol-induced increases in total and neuronal lipid (CX3CR1Cre^ERT.hM4di mice; ENT): prevented

Molecule: CCO [Ethanol, ethanol]
- increase of active p-Tyr216 GSK3β (3×Tg-AD mice [1]; 3×Tg-AD): 17%
- reduction of inactive pSer9 GSK3β (3×Tg-AD mice [1]; 3×Tg-AD): 15.6%
- effect on BACE1 levels (3×Tg-AD mice [1]; 3×Tg-AD cortex): no effect
- effect on PSEN1 levels (3×Tg-AD mice [1]; 3×Tg-AD cortex): no effect
- increase in LAMP1 protein (3×Tg-AD mice [1]; 3×Tg-AD cortex): 26%
- increase in LC3 (LC3-II) protein (3×Tg-AD mice [1]; 3×Tg-AD cortex): 20%
- increase in P62 protein (3×Tg-AD mice [1]; 3×Tg-AD cortex): 20%
- increase in p-mTOR (3×Tg-AD mice [1]; 3×Tg-AD cortex): ~ 2 fold
- reduction in Beclin-1 protein (3×Tg-AD mice [1]; 3×Tg-AD cortex): 14%
- reduction in LAL protein (3×Tg-AD mice [1]; 3×Tg-AD cortex): 19%
- reduction in TFEB protein (3×Tg-AD mice [1]; 3×Tg-AD cortex): 20%
- increase in p-mTOR (3×Tg-AD mice [1]; [7]): 2 fold
- reduction in Beclin-1 protein (3×Tg-AD mice [1]; [7]): 20%
- increase in LAMP1, females (WT mice [2]): ~ 33%
- reduction in Beclin-1 protein, females (trend, p=0.08) (WT mice [2]): 13%
- reduction in Beclin-1 protein, males (WT mice [2]): 12%
- reduction in LC3A/B (WT mice [2]): 12%
- increase in P62 protein, females (WT mice [2]; not altered in males): 33%
- LAL (LIPA) gene expression (3×Tg-AD mice [3]; 3×Tg-AD): reduced
- effect on hMAPT expression, cortex or hippocampus (3×Tg-AD mice [3]; 3×Tg-AD): No effect
- effect on expression of human APP (hAPP) transgene, cortex (3×Tg-AD mice [3]; 3×Tg-AD cortex): no effect
- increase in hAPP expression, male hippocampus (3×Tg-AD mice [3]; 3×Tg-AD males, no change in females): 38%
- increase in total Aβ in ENT (WT mice [4]; 5 weeks ethanol): 36%
- increase in lipid levels in ENT (WT mice [4]; chronic ethanol): 83%
- increase in lysosomal lipid in ENT (WT mice [4]; chronic ethanol): ~ 2 fold
- increase in lysosomal lipid in ENT (WT mice [4]; chronic ethanol, listed as ethanol): 2.5 fold
- increase in Aβ (HEBSC from 3×Tg-AD mice; HEBSC, ethanol): 2 fold
- increase in cytosolic lipid (HEBSC from 3×Tg-AD mice; HEBSC, ethanol): 2 fold
- reduction of lysosomal acidification (LysoTracker red) (HEBSC from 3×Tg-AD mice; ethanol 100 mM, 4 days): 50%
- increase in TUNEL+ neurodegeneration in ENT (3×Tg-AD mice [5]; 3×Tg-AD): 2.5 fold and 3 fold
- increase in cytosolic lipid (LipidSpot), ENT (3×Tg-AD mice [5]; 3×Tg-AD): 88%
- increase in cytosolic lipid (LipidSpot), FCX (3×Tg-AD mice [5]; 3×Tg-AD): 38%
- increase in extra-lysosomal cytoplasmic Aβ, ENT (3×Tg-AD mice [5]; 3×Tg-AD): 1.9 fold
- increase in extra-lysosomal cytoplasmic Aβ, FCX (3×Tg-AD mice [5]; 3×Tg-AD): 1.8 fold
- increase in intraneuronal Aβ (IF), ENT (3×Tg-AD mice [5]; 3×Tg-AD): 59%
- increase in intraneuronal Aβ (IF), FCX (3×Tg-AD mice [5]; 3×Tg-AD): 52%
- increase in lipid within Aβ+ neurons, ENT (3×Tg-AD mice [5]; 3×Tg-AD): 2.2 fold
- increase in lipid within Aβ+ neurons, FCX (3×Tg-AD mice [5]; 3×Tg-AD): 75%
- increase in lysosomal lipid in Aβ+ neurons, ENT (3×Tg-AD mice [5]; 3×Tg-AD): 3.3 fold
- increase in lysosomal lipid in Aβ+ neurons, FCX (3×Tg-AD mice [5]; 3×Tg-AD): ~ 75% and 75%
- increase in lysosomes in Aβ+ neurons, FCX and ENT (3×Tg-AD mice [5]; 3×Tg-AD): 2 fold
- increase in p-tau181 in FCX (3×Tg-AD mice [5]; 3×Tg-AD): 40%
- increase in p-tau-181 in CA1 and FCX (3×Tg-AD mice [5]; 3×Tg-AD): 40%
- reduction in total LAL in ENT and SUB (3×Tg-AD mice [5]; 3×Tg-AD): ~50%
- increase in Aβ plaques, female subiculum, dorsal (3×Tg-AD mice [5]; 3×Tg-AD females): 91%
- increase in Aβ plaques, female subiculum, ventral (3×Tg-AD mice [5]; 3×Tg-AD females): 127%
- increase in amyloid plaques in SUB (3×Tg-AD mice [5]; 3×Tg-AD females): 2 fold
- Aβ1-42 in FCX (3×Tg-AD mice [5]; 3×Tg-AD, both sexes): increased
- increase in pathogenic intraneuronal Aβ1-42 in ENT, FCX and SUB (3×Tg-AD mice [5]; 3×Tg-AD, both sexes): 55-60%
- increase in microglial (Iba-1+) lipid (3×Tg-AD mice [5]; 3×Tg-AD, chronic ethanol): 2 fold and ~ 2 fold
- increase in LAMP1+ lysosomes in Aβ-containing neurons, FCX (3×Tg-AD mice [5]; 3×Tg-AD, ethanol-treated females): ~ 2 fold
- increase in intraneuronal Aβ1-42 in ENT (3×Tg-AD mice [5]; 3×Tg-AD, midlife ethanol vs control): 57%
- increase in cytosolic lipid (LipidSpot), ENT (3×Tg-AD mice [5]; 3×Tg-AD, listed as EtOH): 80%
- reduction of Aβ lysosomal:extra-lysosomal cytoplasmic (lyso:cyto) ratio, FCX and ENT (3×Tg-AD mice [5]; 3×Tg-AD, stated for ethanol and obesity together): ~ 20%
- peak blood alcohol concentration [6]: ~ 290 mg/dL and ~ 280 mg/dL

Molecule: O=C(Oc1nsnc1N1CCCCC1)N1CCCCC1 [LAListat]
- effect on cytosolic lipid levels (HEBSC from 3×Tg-AD mice; [8]): concentration-dependent increase; also recorded: dose-dependent increase
- effect on intraneuronal Aβ in ENT (HEBSC from 3×Tg-AD mice; [8]): concentration-dependent increase; also recorded: dose-dependent increase

Molecule: O=c1c(-c2ccc(O)cc2)coc2cc(O)cc(O)c12 [genistein]
- effect on ethanol-induced increase in cytosolic lipid (HEBSC from 3×Tg-AD mice; HEBSC from 3×Tg-AD mice): did not abolish; also recorded: did not reduce; also recorded: no effect

B1: rLAL: recombinant lysosomal acid lipase / sebelipase (protein, UniProt P38571 77-399, looked up)
Lysosomal acid …: GPKPVVFLQHGLLADSSNWVTNLANSSLGFILADAGFDVWMGNSRGNTWSRKHKTLSVSQDEFWAFSYDEMAKYDLPASINFILNKTGQEQVYYVGHSQGTTIGFIAFSQIPELAKRIKMFFALGPVASVAFCTSPMAKLGRLPDHLIKDLFGDKEFLPQSAFLKWLGTHVCTHVILKELCGNLCFLLCGFNERNLNMSRVDVYTTHSPAGTSVQNMLHWSQAVKFQKFQAFDWGSSAKNYFHYNQSYPPTYNVKDMLVPTAVWSGGHDWLADVYDVNILLTQITNLVFHESIPEWEHLDFIWGLDAPWRLYNKIINLMRKYQ
- reduction of baseline Aβ levels (HEBSC from 3×Tg-AD mice; HEBSC from 3×Tg-AD mice): 50%
- effect on ethanol-induced increase in cytosolic lipid (HEBSC from 3×Tg-AD mice; HEBSC from 3×Tg-AD mice): blocked
- effect on ethanol-induced increase in intraneuronal Aβ (HEBSC from 3×Tg-AD mice; HEBSC from 3×Tg-AD mice): abolished
- effect on ethanol-induced increase in intraneuronal Aβ (HEBSC from 3×Tg-AD mice; HEBSC from 3×Tg-AD mice, listed as Recombinant LAL): blocked
